According to patent publication EP0259014A2, “5-Deoxy-5-fluorokanamycin B derivatives and processes for the production thereof” (ZAIDAN HOJIN BISEIBUTSU KAGAKU KENKYU KAI, priority 1986, dated 1988):
In brackets after ≈: the same amount, converted by molar mass. Like-named read-outs stand apart in the source and are kept apart here.

How the values were obtained:
[1] = tested on: Staphylococcus aureus 209P; assay: MIC, serial dilution on Mueller Hinton agar; assay type: cell-based
[2] = tested on: Staphylococcus aureus Ap01; assay: MIC, serial dilution on Mueller Hinton agar; assay type: cell-based
[3] = tested on: Corynebacterium bovis 1810; assay: MIC, serial dilution on Mueller Hinton agar; assay type: cell-based
Escherichia coli K-12 = assay: MIC, serial dilution on Mueller Hinton agar; assay type: cell-based
Escherichia coli K-12 R5 = assay: MIC, serial dilution on Mueller Hinton agar; assay type: cell-based; conditions: K12R5, 18 h
[4] = tested on: Escherichia coli K-12 LA 290 R55; assay: MIC, serial dilution on Mueller Hinton agar; assay type: cell-based; conditions: Escherichia coli, K12LA290R55, 18 h
[5] = tested on: Klebsiella pneumoniae 22#3038; assay: MIC, serial dilution on Mueller Hinton agar; assay type: cell-based; conditions: Klebsiella pneumoniae 22#3038, resistance mechanism APH(3')-II, ANT(2"), 37°C, 18 hours
Source text: The antibacterial spectra so determined of the new compounds No. 1 to No. 13 (each in the form of the free base) of this invention are as shown in Table 1 below.

Proteus rettgeri GN 311 = assay: MIC, serial dilution on Mueller Hinton agar; assay type: cell-based; conditions: Providencia rettgeri
Serratia marcescens = assay: MIC, serial dilution on Mueller Hinton agar; assay type: cell-based
Providencia sp. Pv 16 = assay: MIC, serial dilution on Mueller Hinton agar; assay type: cell-based
[6] = tested on: Pseudomonas aeruginosa A3; assay: MIC, serial dilution on Mueller Hinton agar; assay type: cell-based
[7] = tested on: Pseudomonas aeruginosa GN 315; assay: MIC, serial dilution on Mueller Hinton agar; assay type: cell-based; conditions: GN315; Pseudomonas aeruginosa GN 315, resistance mechanism AAC(6'); Mueller Hinton agar, 37°C, 18 hours; read-out: MIC.
in vivo = conditions: mouse, iv
Bacillus subtilis PCI219 = assay: MIC, serial dilution on Mueller Hinton agar; assay type: cell-based
[8] = tested on: Escherichia coli K-12 ML 1629; assay: MIC, serial dilution on Mueller Hinton agar; assay type: cell-based; conditions: K12ML1629, Escherichia coli K-12 ML 1629, resistance mechanism APH(3')-I, 37°C, 18 hours
Escherichia coli JR225 = assay: microbe, parasite or virus in culture; assay type: cell-based; conditions: Escherichia coli, JR225, 18 h
[9] = tested on: Escherichia coli JR66/W677; assay: microbe, parasite or virus in culture; assay type: cell-based; conditions: JR66/W677, 18 h
Mycobacterium 607 = assay: MIC, serial dilution on Mueller Hinton agar; assay type: cell-based
[10] = tested on: Staphylococcus aureus Ap 01; assay: Antibacterial activity against resistant strain (background statement); assay type: cell-based; conditions: Staphylococcus aureus Ap 01, resistant strain producing enzyme reacting with the 4'-hydroxyl group
[11] = tested on: Staphylococcus epidermidis 109; assay: as above; assay type: cell-based; conditions: Staphylococcus epidermidis 109, resistant strain producing enzyme reacting with the 4'-hydroxyl group
[12] = Staphylococcus aureus 209P, Mueller Hinton agar, 37°C, 18 hours, read-out: MIC.
[13] = Staphylococcus aureus Ap01, resistance mechanism ANT(4'), Mueller Hinton agar, 37°C, 18 hours, read-out: MIC.
[14] = Corynebacterium bovis 1810, Mueller Hinton agar, 37°C, 18 hours, read-out: MIC.
[15] = K12, Escherichia coli K-12, Mueller Hinton agar, 37°C, 18 hours, read-out: MIC.
[16] = GN311, Proteus rettgeri GN 311, Mueller Hinton agar, 37°C, 18 hours, read-out: MIC.
[17] = Mueller Hinton agar, 37°C, 18 hours, read-out: MIC.
[18] = Pseudomonas aeruginosa A3, Mueller Hinton agar, 37°C, 18 hours, read-out: MIC.
[19] = Bacillus subtilis PCI219, Mueller Hinton agar, 37°C, 18 hours, read-out: MIC.
[20] = Mycobacterium 607, Mueller Hinton agar, 37°C, incubated for 40 hours, read-out: MIC.
[21] = SP.PV16, Providencia sp. Pv 16, resistance mechanism AAC(2'), Mueller Hinton agar, 37°C, 18 hours, read-out: MIC.

Row | SMILES | MIC [1, 12] | MIC [2, 13] | MIC [3, 14] | MIC (Escherichia coli K-12; [15]) | MIC (Escherichia coli K-12 R5) | MIC [4] | MIC [5] | MIC (Proteus rettgeri GN 311; [16]) | MIC (Serratia marcescens; [17]) | MIC [6, 18] | MIC [7] | LD50 (in vivo) | MIC (Bacillus subtilis PCI219; [19]) | MIC [8] | MIC (Escherichia coli JR225) | MIC [9] | MIC (Mycobacterium 607; [20]) | MIC (Providencia sp. Pv 16; [21]) | also measured
1 | NC[C@H]1O[C@H](O[C@H]2[C@H](F)[C@@H](O[C@H]3O[C@H](CO)[C@@H](O)[C@H](N)[C@H]3O)[C@H](N)C[C@@H]2N)[C@H](N)C[C@@H]1O [Compound No. 2, 5,3'-Dideoxy-5-fluorokanamycin B] | 0.39 µg/mL (≈ 0.831 µM) | 0.39 µg/mL (≈ 0.831 µM) | 1.56 µg/mL (≈ 3.32 µM) | < 0.2 µg/mL | 25 µg/mL (≈ 53.2 µM) | 3.12 µg/mL (≈ 6.65 µM) | 3.12 µg/mL (≈ 6.65 µM) | < 0.2 µg/mL | 6.25 µg/mL (≈ 13.3 µM) | < 0.2 µg/mL | 50 µg/mL (≈ 106 µM) | 200 mg/kg | – | – | – | – | – | – | MIC (Providencia sp. Pv 16; Providencia, SP.PV16, 18 h): 3.12 µg/mL (≈ 6.65 µM)
2 | NCC[C@H](O)C(=O)N[C@@H]1C[C@H](N)[C@@H](O[C@H]2O[C@H](CN)CC[C@H]2N)[C@H](F)[C@H]1O[C@H]1O[C@H](CO)[C@@H](O)[C@H](N)[C@H]1O [Compound No. 13, 1-N-(4-Amino-2-(S)-hydroxybutyryl)-5,3',4-trideoxy-5-fluorokanamycin B] | 0.39 µg/mL (≈ 0.703 µM) | 0.78 µg/mL (≈ 1.41 µM) | < 0.2 µg/mL | 0.2 µg/mL (≈ 0.361 µM) | 50 µg/mL (≈ 90.2 µM) | 0.78 µg/mL (≈ 1.41 µM) | 0.78 µg/mL (≈ 1.41 µM) | < 0.2 µg/mL | 1.56 µg/mL (≈ 2.81 µM) | 0.39 µg/mL (≈ 0.703 µM) | 6.25 µg/mL (≈ 11.3 µM) | 150 mg/kg | 0.39 µg/mL (≈ 0.703 µM) | 0.39 µg/mL (≈ 0.703 µM) | 0.2 µg/mL (≈ 0.361 µM) | 0.78 µg/mL (≈ 1.41 µM) | 0.78 µg/mL (≈ 1.41 µM) | 0.78 µg/mL (≈ 1.41 µM) | –
3 | NC[C@H]1O[C@H](O[C@H]2[C@H](O)[C@@H](O[C@H]3O[C@H](CO)[C@@H](O)[C@H](N)[C@H]3O)[C@H](N)C[C@@H]2N)[C@H](N)[C@@H](O)[C@@H]1O [KMB, kanamycin B] | – | 25 µg/mL (≈ 51.7 µM) | 0.78 µg/mL (≈ 1.61 µM) | – | 50 µg/mL (≈ 103 µM) | 12.5 µg/mL (≈ 25.9 µM) | > 100 µg/mL | – | 3.12 µg/mL (≈ 6.45 µM) | – | 50 µg/mL (≈ 103 µM) | 110 mg/kg | – | > 100 µg/mL | 12.5 µg/mL (≈ 25.9 µM) | > 100 µg/mL | 1.56 µg/mL (≈ 3.23 µM) | – | MIC ([1]; Staphylococcus aureus, 209P, 18 h): 0.39 µg/mL (≈ 0.807 µM); MIC (Bacillus subtilis PCI219; Bacillus subtilis, PCI219, 18 h): < 0.2 µg/mL; MIC (Escherichia coli K-12; Escherichia coli, K12, 18 h): 0.39 µg/mL (≈ 0.807 µM); MIC (Proteus rettgeri GN 311; GN311, 18 h): 0.2 µg/mL (≈ 0.414 µM); MIC (Providencia sp. Pv 16; Providencia, SP.PV16, 18 h): 12.5 µg/mL (≈ 25.9 µM); MIC ([6]; Pseudomonas aeruginosa, A3, 18 h): 1.56 µg/mL (≈ 3.23 µM)
4 | NC[C@@H]1CC[C@@H](N)[C@@H](O[C@H]2[C@H](F)[C@@H](O[C@H]3O[C@H](CO)[C@@H](O)[C@H](N)[C@H]3O)[C@H](N)C[C@@H]2N)O1 [Compound No. 4, 5,3',4'-Trideoxy-5-fluorokanamycin B] | 0.78 µg/mL (≈ 1.72 µM) | – | – | – | 100 µg/mL (≈ 221 µM) | 6.25 µg/mL (≈ 13.8 µM) | 6.25 µg/mL (≈ 13.8 µM) | 0.78 µg/mL (≈ 1.72 µM) | 12.5 µg/mL (≈ 27.6 µM) | 0.39 µg/mL (≈ 0.86 µM) | 100 µg/mL (≈ 221 µM) | 140 mg/kg | 0.78 µg/mL (≈ 1.72 µM) | 3.12 µg/mL (≈ 6.88 µM) | 3.12 µg/mL (≈ 6.88 µM) | 3.12 µg/mL (≈ 6.88 µM) | – | 12.5 µg/mL (≈ 27.6 µM) | MIC ([2]; Staphylococcus aureus, AP01, 18 h): 3.12 µg/mL (≈ 6.88 µM); MIC ([3]; Corynebacterium bovis, 1810, 18 h): 6.25 µg/mL (≈ 13.8 µM); MIC (Escherichia coli K-12; Escherichia coli, K12, 18 h): 3.12 µg/mL (≈ 6.88 µM); MIC (Mycobacterium 607; Mycobacterium, 607, 40 h): 6.25 µg/mL (≈ 13.8 µM)
5 | NCC[C@H](O)C(=O)N[C@@H]1C[C@H](N)[C@@H](O[C@H]2O[C@H](CN)[C@@H](O)C[C@H]2N)[C@H](F)[C@H]1O[C@H]1O[C@H](CO)[C@@H](O)[C@H](N)[C@H]1O [Compound No. 9, 1-N-(4-Amino-2-(S)-hydroxybutyryl)-5,3'-dideoxy-5-fluorokanamycin B] | 0.39 µg/mL (≈ 0.683 µM) | 0.78 µg/mL (≈ 1.37 µM) | < 0.2 µg/mL | < 0.2 µg/mL | 3.12 µg/mL (≈ 5.47 µM) | 0.78 µg/mL (≈ 1.37 µM) | 1.56 µg/mL (≈ 2.73 µM) | < 0.2 µg/mL | – | 0.39 µg/mL (≈ 0.683 µM) | 6.25 µg/mL (≈ 11 µM) | 150 mg/kg | < 0.2 µg/mL | 0.78 µg/mL (≈ 1.37 µM) | 0.39 µg/mL (≈ 0.683 µM) | 0.78 µg/mL (≈ 1.37 µM) | 0.78 µg/mL (≈ 1.37 µM) | 0.78 µg/mL (≈ 1.37 µM) | MIC (Serratia marcescens; 18 h): 3.12 µg/mL (≈ 5.47 µM)
6 | NC[C@H]1O[C@H](O[C@H]2[C@H](O)[C@@H](O[C@H]3O[C@H](CO)[C@@H](O)[C@H](N)[C@H]3O)[C@H](N)C[C@@H]2N)[C@H](N)C[C@@H]1O [TMB, 3'-deoxykanamycin B, reference compound] | < 0.2 µg/mL | 1.56 µg/mL (≈ 3.34 µM) | 6.25 µg/mL (≈ 13.4 µM) | 0.39 µg/mL (≈ 0.834 µM) | 100 µg/mL (≈ 214 µM) | 25 µg/mL (≈ 53.5 µM) | 12.5 µg/mL (≈ 26.7 µM) | 0.2 µg/mL (≈ 0.428 µM) | – | < 0.2 µg/mL | 50 µg/mL (≈ 107 µM) | 80 mg/kg | < 0.2 µg/mL | – | 25 µg/mL (≈ 53.5 µM) | 12.5 µg/mL (≈ 26.7 µM) | – | 6.25 µg/mL (≈ 13.4 µM) | MIC (Serratia marcescens; 18 h): 12.5 µg/mL (≈ 26.7 µM)
7 | NCC1OC(OC2C(N)CC(N)C(OC3OC(CO)C(O)C(N)C3O)C2O)C(N)C(F)C1O (stereo not shown) [3'-fluoro-3'-deoxykanamycin B] | – | – | – | – | – | – | – | – | – | – | – | – | – | – | – | – | – | – | antibacterial activity [10]: low antibacterial activity; antibacterial activity [11]: low antibacterial activity
